Test results as given in a melting point compilation (Tetko et al.; mined from patent text by program, amines drawn as free bases though some values may be those of a salt).

| melting point | SMILES |
| --- | --- |
| 92 to 93 °C | Cn1nnnc1SCCCCN1C(=O)c2ccccc2C1=O |
| 222 to 225 °C | CCCS(=O)(=O)N1CCC(c2nc3cc(-c4ccc(C(N)=O)c(F)c4)ccc3o2)CC1 |
| 98 °C | CC(C)(C)OC(=O)Nc1cc(CC#N)c(C#Cc2ccccc2)cc1NC(=O)CC(=O)c1cccc(C#N)c1 |
| 268 to 270 °C | O=S(=O)(c1ccc(Cl)cc1)c1ccc(-c2ccc(O)cc2)cc1 |
| 120 to 121 °C | COc1ccc(CC(=NNS(=O)(=O)c2ccc(C)cc2)c2cc(OC)cc(OC)c2)cc1 |
| 84 °C | COc1cc(CC(C#N)C(OC)OC)cc(OC)c1Cl (stereo unspecified) |
| 255 to 256 °C | COc1ccc(C2(C)C(=O)Nc3cc(Cl)cc(Cl)c3C2=O)cc1[N+](=O)[O-] (stereo unspecified) |
| 125 to 126 °C | Oc1cccnc1Sc1cccc(Br)c1 |
| 165 to 168 °C | CSC1C(=O)Nc2c(C(=O)c3ccc(F)cc3)cccc21 (stereo unspecified) |
| 115 to 117 °C | CC1=C(C(=O)Nc2ccc(Cl)cc2)SCCS1 |
| 172 to 174 °C | CCOCc1nc2c(N)nc(C)c(C)c2n1CCNC(=O)C(C)C |
| 145 to 146 °C | COC(=O)c1cc2c(OC)ccc(OC)c2[nH]1 |
| 157 to 158 °C | O=C1CC(c2ccccc2)CN1C(=O)c1ccc(Cl)cc1 (stereo unspecified) |
| 210 °C | CC1Cc2cc(S(=O)(=O)N3CCN(c4cccc(Cl)c4)CC3)ccc2N1C(=O)CCC(=O)O (stereo unspecified) |
| 151 to 152 °C | CS(=O)(=O)c1ccc(C2=C(c3cccc(F)c3F)CCC2)cc1 |
| 291 to 296 °C | CN(C)C=Nc1ccc2nnc(-c3ccc([N+](=O)[O-])o3)n2n1 |
| 69 to 70 °C | CCCCCCCCCCCCCCOc1cc(OCCCOc2ccc(OCc3ccccc3)cc2)cc(C(=O)OC)c1 |
| 89 to 90 °C | CCc1noc(-c2cn(-c3cccc(OC)c3)cn2)n1 |
| 185 to 186 °C | CC(=O)COc1c(-c2ccccc2)c(=O)[nH]c2cc(Cl)ccc12 |
| 60 °C | COC(=O)Cc1ccc(OCCNC(=O)C2Cc3ccccc3N2S(=O)(=O)c2ccc(-c3ccc(F)cc3)c(C(F)(F)F)c2)cc1 (stereo unspecified) |
| 172 to 173 °C | O=C1C2=CC=CCC2C(O)N1CCN1CCC(c2noc3cc(F)ccc23)CC1 (stereo unspecified) |
| 126 to 128 °C | Cc1cc(Cc2cnc(NCCCCc3ncc(Br)cc3C)[nH]c2=O)cnc1C |
| 117 to 118 °C | C#CCn1c(=O)c2ccccc2c(=O)c2ccccc21 |

| melting point | SMILES |
| --- | --- |
| 120 °C | O=c1[nH]c2ccccc2n1C/C=C/CCl |
| > 200 °C | Nc1nc(O)c2cc(CCc3ccc(C(=O)N[C@@H](CCC(=O)O)C(=O)O)cc3)cnc2n1 |
| 240 °C | Cc1cccc(NC(=O)NCC(=O)N(c2ccccc2)c2ccccc2)c1 |
| 151 to 152 °C | O=C1CCc2ccc(OC/C=C/CN3CCN(c4cccc(Cl)c4Cl)CC3)cc2N1 |
| 218 to 223 °C | O=C(C#Cc1ccc(C(F)(F)F)cc1Cl)Nc1ccc2oc(CN3CCCC3)nc2c1 |
| 219 to 225 °C | CC(=O)NCC(C)(C)c1ccc2nc(-c3ccncc3)[nH]c2c1 |
| 213 to 214 °C | CC(=O)Nc1nccc(Oc2ccc3c(C(=O)Nc4ccc(F)c(C(F)(F)F)c4)cccc3c2)n1 |
| 220 °C | CC(C)(C)OC(=O)N1CC(c2n[nH]c(-c3ccccn3)n2)C1 |
| 218 to 219 °C | COC(=O)C1=C(C)Nc2ncnc(OC(C)C)c2C1c1cccc([N+](=O)[O-])c1 (stereo unspecified) |
| 124 to 125 °C | O=C(C=Cc1c(Cl)cccc1Cl)c1c(Cl)cccc1Cl |
| 50 to 52 °C | CC(O)c1ccccc1N (stereo unspecified) |
| 179 to 182 °C | CCOC(=O)N=C1NCC(Oc2ccc(C(Cc3cc4cc(C#N)ccc4s3)C(=O)OCC)cc2)CN1 (stereo unspecified) |
| 93 °C | COC(=O)CS(=O)(=O)C1CCCCC1Sc1cc(C(C)(C)C)c(O)c(C(C)(C)C)c1 (stereo unspecified) |
| 110 °C | Cc1cccc(C)c1NC(=O)CN1CCN(CC(O)CC(c2ccc(F)cc2)c2ccc(F)cc2)C(C(N)=O)C1 (stereo unspecified) |
| 95 to 96 °C | CC1=CC(=Nc2nccs2)C(C)C(C)=C1O (stereo unspecified) |
| 223 to 225 °C | COc1cc(C)c(Cc2cnc(N)nc2N)cc1OC |
| 161 to 162 °C | O=c1n(-c2ccc(OCC(F)(F)C(F)F)cc2)cnn1-c1ccc([N+](=O)[O-])cc1 |
| 228 to 230 °C | COCc1nc(N)nc(N)c1-c1cc(Cl)cc(Cl)c1 |
| 170 to 171 °C | Cc1noc(NC(=O)N2CCC(c3nc(-c4ccc(F)cc4)cs3)CC2)c1C |
| 67 to 71 °C | CCCC[C@H](NC(=O)[C@H](CCC(=O)O)NC(=O)OCc1ccccc1)C(=O)CSCc1ccco1 |
| 103 °C | COCCCN1CCC(CNC(=O)c2cc(Cl)c(N)nc2OC)CC1 |
| 220 to 223 °C | CCC(=Nc1ccc2c(c1)C(=O)c1ccc(N=C(CC)N3CCOCC3)cc1C2=O)N1CCOCC1 |
| 146 to 147 °C | CCCCOc1c(CNC(=O)OC(C)(C)C)n(CC(C)C)c(=O)c2ccc(-c3nc(C)c(C(=O)OCC)s3)cc12 |

| melting point | SMILES |
| --- | --- |
| 123 °C | CCc1cccc(CC(=O)O)c1OCCCc1cn(-c2ccc(Br)cn2)nc1C(CC)CC |
| 86 to 87 °C | CCCCCCCCCCCCCCOc1ccc(CC(=O)NCc2ccccn2)cc1 |
| 62 to 63 °C | COCCOc1ccc([N+](=O)[O-])cc1F |
| 156 to 158 °C | O=C(CBr)Nc1cc(Cl)ccc1C(=O)O |
| 200 to 203 °C | Cc1cc2c(c3ccc(=O)[nH]c13)OC(COS(C)(=O)=O)C2 (stereo unspecified) |
| 97 to 102 °C | COC(=O)C1CC(=O)N(Cc2ccccc2)C1c1c(Cl)cccc1Cl (stereo unspecified) |
| 51 to 53 °C | N#Cc1cnn(-c2c(Cl)cc(C(F)(F)F)cc2Cl)n1 |
| 188 to 189 °C | Cc1nc2c([N+](=O)[O-])cccn2c1C=O |
| 152 to 155 °C | CCCC(CCC)c1nc(-c2ccncc2)c(-c2ccc(Cl)cc2)n1CC |
| 138 to 140 °C | CCN(CC(OC)OC)C(=O)Nc1ccc(C(O)(C(F)(F)F)C(F)(F)F)cc1 |
| 124 to 125 °C | O=C(O)CCCCCCCNC(=O)c1ccccc1NC(=O)c1ccccc1O |
| 83 to 84 °C | Nc1ccc(F)cc1Nc1ccc(F)cc1 |
| 220 to 221 °C | CN(c1cc2ccccc2s1)c1nc(=O)c2cccnc2s1 |
| 155 to 156 °C | Cc1nc(N2CCN(Cc3cccc(F)c3)C2=O)sc1C(=O)NCc1ccccc1 |
| 117 to 119 °C | CCOc1nc(C(F)(F)F)cc(=O)n1-c1cc(OC)c(Cl)cc1F |
| 85 to 87 °C | N#CNc1ccccc1-c1ccccc1 |
| 96 to 97 °C | Nc1cc(N2CCOCC2)cc(C(F)(F)F)c1 |
| 187 to 188 °C | COc1ccc(C(=O)Nc2cc(NC(=O)c3cccc(N(C)C)c3)ccc2F)cc1OC |
| 116 to 118 °C | O=C1c2ccc(Cl)cc2C(O)N1CCO[N+](=O)[O-] (stereo unspecified) |
| 186 to 187 °C | CCOCc1nc2c(N)nc3cc(-c4cccc(CO)c4)cnc3c2n1CC(C)(C)O |
| 231 to 232 °C | NC(=O)c1cc2ccccc2[nH]1 |
| 133 to 135 °C | Nc1sc2c(c1C(=O)c1ccsc1)CCCC2 |
| 120 to 122 °C | CC(C)(C)c1cc(C(=O)Oc2ccc(C(=O)c3cc(C(C)(C)C)c(O)c(C(C)(C)C)c3)c(O)c2)cc(C(C)(C)C)c1O |

| melting point | SMILES |
| --- | --- |
| 216 to 218 °C | CCCc1c(OCCc2ccc3cc(O)c(O)cc3c2)ccc(C(=O)O)c1O |
| 160 to 161 °C | NCC(c1ccc(OCc2ccccc2)cc1)C1CCCCC1O (mixture of isomers) |
| 180 to 181 °C | Cc1oc(-c2ccccc2)nc1COc1ccc(CCc2oc(-c3ccccc3)nc2CC(=O)O)cc1 |
| 174 to 175 °C | COc1ccn2nc(-c3ccccc3F)c(-c3ccc(=O)n(C(C)C)n3)c2c1 |
| 199 to 202 °C | Cc1cc(C)cc(N2CCN(Cc3ncn(C(c4ccccc4)(c4ccccc4)c4ccccc4)c3C)C2=O)c1 |
| 150 to 152 °C | CC(C)Cc1ccc(C(C)C(=O)NCCN(O)C(N)=O)cc1 (stereo unspecified) |
| 96 to 98 °C | CC(=S)NCC1CN(c2ccc(-c3csc(Cn4cnnn4)n3)c(F)c2)C(=O)O1 (stereo unspecified) |
| 64 to 65 °C | COc1ccc(-c2nc(CCl)co2)s1 |
| 182 to 183 °C | COc1cc(OC)c(-c2nc(C)no2)cc1C=O |
| 275 °C | CC(=O)N1c2ccc(-c3ccc(C(=O)O)cc3)cc2[C@H](Nc2ccc(Cl)cc2)C[C@@H]1C |
| 235 to 237 °C | COc1cccc(OC)c1C(=O)Nc1nnc(-c2ccccc2Cl)s1 |
| 59 to 61 °C | CC=C(CC)c1nc(C)nc2c1c(C)c(C)n2-c1c(C)cc(C)cc1C |
| 143 to 145 °C | CC(=O)N(CC(=O)O)C[C@H]1O[C@H](c2ccccc2Cl)c2cc(Cl)ccc2N(Cc2ccccc2)C1=O (relative stereo) |
| 202 to 203 °C | CC(C)c1ccc(C(=O)NCCOc2ccc(C(=O)O)cc2)cc1 |
| 149 to 151 °C | O=C(O)CCCCCCc1cccc(-c2nc(=O)c3ccccc3s2)n1 |
| 90 to 95 °C | COC(=O)c1ccc(OCCNC(=O)C2Cc3ccccc3N2S(=O)(=O)c2ccc(-c3ccc(F)cc3)cc2)c(C(F)(F)F)c1 (stereo unspecified) |
| 184 °C | CC(C)n1c(=O)n(C(=O)NCC2(O)CCN(CC3(C(=O)O)CCCCC3)CC2)c2ccccc21 |
| 254 to 256 °C | Cc1cnc2nc(SCc3ccccc3)nn2c1 |
| 170 °C | C/C=C/CC(=O)N[C@H]1CC[C@H](CCN2CCN(c3nccc4c3OCC4)CC2)CC1 |
| 110 to 113 °C | NS(=O)(=O)C1=CC2=C(OCCO)CCSC2S1 (stereo unspecified) |

| SMILES | melting point |
| --- | --- |
| O=c1c2ccc(F)cc2nc(C(S)c2ncnc3[nH]cnc23)n1-c1ccccc1Cl (stereo unspecified) | 151 to 154 °C |
| CC1N=C(c2ccccc2Cl)c2cc([N+](=O)[O-])ccc2N(C)C1=O (single isomer, unassigned; (+)) | 156 to 158 °C |
| CCC12CCC3C4CCC(=O)C=C4C=CC3C1CCC2OC(C)=O (stereo unspecified) | 163 to 177 °C |
| CN1CCC[C@H]1c1cnc(Cl)cc1P(C(C)(C)C)C(C)(C)C | 125 to 127 °C |
| CN1Cc2c(C(N)=O)ncn2-c2cccc(Cl)c2C1=O | > 250 °C |
| CCN(CC)C(=O)c1nc2n(n1)-c1ccc(Cl)cc1C(c1ccccc1)=NC2 | 175 to 177 °C |
| O=C1CC(=C[N+](=O)[O-])Nc2ccccc2N1c1ccccc1 | 231 to 234 °C |
